Data: patent US9090599B2, “Heteroarylmethyl amides” (Hoffman-La Roche Inc., priority 2010, dated 2015)
Read-outs that look alike come from different tables or passages of the source.

Legend:
[1] = molecular target: T1, human CB2 receptor (Homo sapiens, UniProt P34972); assay: CB2 receptor affinity, [3H]-CP-55,940 displacement, HEK cell membranes; format: binding; details: 10 μM compound, radioligand [3H]-CP-55,940
T1 construct: expressed in transfected cells; host or cells: human embryonic kidney (HEK) cells, Semliki Forest Virus system, membrane preparations
Experimental: (§1) The affinity of the compounds of the invention for cannabinoid CB2 receptors was determined using membrane preparations of human embryonic kidney (HEK) cells in which the human CB2 receptor is transiently transfected using a Semliki Forest Virus system in conjunction with [^3H]-CP-55,940 as radioligand. After incubation of freshly prepared cell membrane preparation with the [^3H]-ligand, with or without addition of compounds of the invention, separation of bound and free ligand was performed by filtration over glass fiber filters. Radioactivity on the filter was measured by scintillation counting.
(§2) The ability of the compounds to displace the radioligand [^3H]-CP-55,940 was measured at a concentration of 10 μM and values provided as [% inhibition @ 10 μM] both for the CB 1 and CB2 receptor assay, The lower % inhibition is, the lower the likelihood of side effects based on CB1 or CB2 receptor inhibition is.

[2] = molecular target: T2, human CB1 receptor (Homo sapiens, UniProt P21554); assay: CB1 receptor affinity, [3H]-CP-55,940 displacement, HEK cell membranes; format: binding; details: read-out: CB1 receptor affinity [% inhibition @ 10 μM]
T2 construct: expressed in transfected cells; host or cells: human embryonic kidney (HEK) cells, Semliki Forest Virus system, membrane preparations
Experimental: as §1, with “cannabinoid” for “cannabinoid CB2”, “CB1” for “CB2”, “[3H]-CP-55,940” for “[^3H]-CP-55,940”
as §2

[3] = 10 μM compound, radioligand [3H]-CP-55,940

T2 sequence (P21554 whole entry): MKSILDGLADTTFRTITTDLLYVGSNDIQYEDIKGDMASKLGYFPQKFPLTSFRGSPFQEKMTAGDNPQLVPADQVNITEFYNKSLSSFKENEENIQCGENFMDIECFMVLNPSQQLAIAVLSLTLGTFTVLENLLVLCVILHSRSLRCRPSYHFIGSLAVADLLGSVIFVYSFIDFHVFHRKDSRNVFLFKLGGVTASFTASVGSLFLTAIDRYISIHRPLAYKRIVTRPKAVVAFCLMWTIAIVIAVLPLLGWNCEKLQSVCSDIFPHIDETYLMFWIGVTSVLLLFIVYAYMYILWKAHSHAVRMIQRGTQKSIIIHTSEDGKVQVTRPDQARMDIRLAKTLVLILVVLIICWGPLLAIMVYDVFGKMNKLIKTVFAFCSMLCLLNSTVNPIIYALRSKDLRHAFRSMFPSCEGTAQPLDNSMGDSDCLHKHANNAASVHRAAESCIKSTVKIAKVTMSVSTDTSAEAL
T1 sequence (P34972 whole entry): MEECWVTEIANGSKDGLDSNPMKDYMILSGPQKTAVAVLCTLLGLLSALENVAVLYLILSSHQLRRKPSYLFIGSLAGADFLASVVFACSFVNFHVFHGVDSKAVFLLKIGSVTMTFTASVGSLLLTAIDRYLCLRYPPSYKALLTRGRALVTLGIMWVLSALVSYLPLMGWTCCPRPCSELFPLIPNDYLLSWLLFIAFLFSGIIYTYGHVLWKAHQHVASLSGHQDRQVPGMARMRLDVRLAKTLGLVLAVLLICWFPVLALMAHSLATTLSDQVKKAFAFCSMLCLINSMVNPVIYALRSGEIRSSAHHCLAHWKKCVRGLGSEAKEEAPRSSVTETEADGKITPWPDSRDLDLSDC

Row | inhibition at 10 µM [1] | inhibition at 10 µM [2, 3] | Structure (SMILES) | inhibition at 10 µM [2]
1 | 12% | 20% | CC(C)(C)c1nc(CNC(=O)c2cc(-c3ccc(Cl)cc3)c(OCC3CC3)cn2)cs1 [Example 54, N-((2-tert-butylthiazol-4-yl)methyl)-4-(4-chlorophenyl)-5-(cyclopropylmethoxy)picolinamide] | –
2 | 33% | 44% | CC(C)c1cc(CNC(=O)c2ccc(OCC3CC3)c(-c3ccc(Cl)cc3)n2)no1 [Example 55, 6-(4-chloro-phenyl)-5-cyclopropylmethoxy-pyridine-2-carboxylic acid (5-isopropyl-isoxazol-3-ylmethyl)-amide] | –
3 | 32% | 38% | O=C(NCc1coc(C2CC2)n1)c1ccc(OCC2CC2)c(-c2ccc(Cl)cc2)n1 [Example 56, 6-(4-chloro-phenyl)-5-cyclopropylmethoxy-pyridine-2-carboxylic acid (2-cyclopropyl-oxazol-4-ylmethyl)-amide] | –
4 | 19% | 42% | O=C(NCc1cc(C(F)(F)F)on1)c1ccc(OCC2CC2)c(-c2ccc(Cl)cc2)n1 [Example 58, 6-(4-chloro-phenyl)-5-cyclopropylmethoxy-pyridine-2-carboxylic acid (5-trifluoromethyl-isoxazol-3-ylmethyl)-amide] | –
5 | 24% | 44% | O=C(NCc1cc(C(F)(F)F)no1)c1ncc(OCC2CC2)c(-c2ccc(Cl)cc2)n1 [Example 62, 4-(4-chloro-phenyl)-5-cyclopropylmethoxy-pyrimidine-2-carboxylic acid (3-trifluoromethyl-isoxazol-5-ylmethyl)-amide] | –
6 | 38% | 36% | CC(C)(C)c1nc(CNC(=O)c2ccc(OCC3CC3)c(-c3ccc(Cl)cc3)n2)cs1 [Example 63, 6-(4-chloro-phenyl)-5-cyclopropylmethoxy-pyridine-2-carboxylic acid (2-tert-butyl-thiazol-4-ylmethyl)-amide] | –
7 | 18% | 49% | O=C(NCc1cc(C(F)(F)F)on1)c1cnc(OCC2CC2)c(-c2ccc(Cl)cc2)c1 [Example 66, 5-(4-chloro-phenyl)-6-cyclopropylmethoxy-N-(5-trifluoromethyl-isoxazol-3-ylmethyl)-nicotinamide] | –
8 | 3% | 45% | C[C@H](Oc1cnc(C(=O)NCc2cc(C(F)(F)F)no2)nc1-c1ccc(Cl)cc1)C(F)(F)F [Example 68, (S)-4-(4-chlorophenyl)-N-((3-(trifluoromethyl)isoxazol-5-yl)methyl)-5-(1,1,1-trifluoropropan-2-yloxy)pyrimidine-2-carboxamide] | –
9 | 40% | 34% | C[C@H](Oc1ncc(C(=O)NCc2ccccn2)nc1-c1ccc(Cl)cc1)C(F)(F)F [Example 69, (S)-6-(4-chlorophenyl)-N-(pyridin-2-ylmethyl)-5-(1,1,1-trifluoropropan-2-yloxy)pyrazine-2-carboxamide] | –
10 | 34% | 19% | COc1cc(CNC(=O)c2cc(-c3ccc(C)c(C)c3)c(OCC(F)(F)F)cn2)on1 [Example 75, 4-(3,4-dimethylphenyl)-N-((3-methoxyisoxazol-5-yl)methyl)-5-(2,2,2-trifluoroethoxy)picolinamide] | –
11 | 5% | 17% | Cc1ccc(-c2cc(C(=O)NCc3nc(C(F)(F)F)no3)ncc2OCC(F)(F)F)cc1C [Example 78, 4-(3,4-dimethylphenyl)-5-(2,2,2-trifluoroethoxy)-N-((3-(trifluoromethyl)-1,2,4-oxadiazol-5-yl)methyl)picolinamide] | –
12 | 27% | 30% | O=C(NCc1nc(C(F)(F)F)no1)c1cnc(OCC(F)(F)F)c(-c2ccc(Cl)c(F)c2)c1 [Example 82, 5-(4-chloro-3-fluorophenyl)-6-(2,2,2-trifluoroethoxy)-N-((3-(trifluoromethyl)-1,2,4-oxadiazol-5-yl)methyl)nicotinamide] | –
13 | -2% | 44% | CCc1ccc(-c2cc(C(=O)NCc3nc(C(F)(F)F)no3)cnc2OCC(F)(F)F)cc1 [Example 83, 5-(4-ethylphenyl)-6-(2,2,2-trifluoroethoxy)-N-((3-(trifluoromethyl)-1,2,4-oxadiazol-5-yl)methyl)nicotinamide] | –
14 | 21% | 49% | O=C(NCc1nc(C(F)(F)F)no1)c1cnc(OCC(F)(F)F)c(-c2ccc(Cl)cc2F)c1 [Example 84, 5-(4-chloro-2-fluorophenyl)-6-(2,2,2-trifluoroethoxy)-N-((3-(trifluoromethyl)-1,2,4-oxadiazol-5-yl)methyl)nicotinamide] | –
15 | 8% | 7% | O=C(NCc1nc(C(F)(F)F)no1)c1cnc(OCC(F)(F)F)c(-c2ccc3c(c2)CCC3)c1 [Example 85, 5-(2,3-dihydro-1H-inden-5-yl)-6-(2,2,2-trifluoroethoxy)-N-((3-(trifluoromethyl)-1,2,4-oxadiazol-5-yl)methyl)nicotinamide] | –
16 | 9% | 37% | COc1cc(CNC(=O)c2cnc(OCC(F)(F)F)c(-c3ccc(Cl)c(F)c3)c2)on1 [Example 86, 5-(4-chloro-3-fluorophenyl)-N-((3-methoxyisoxazol-5-yl)methyl)-6-(2,2,2-trifluoroethoxy)nicotinamide] | –
17 | 3% | 45% | N#Cc1ccc(-c2cc(C(=O)NCc3nc(C(F)(F)F)no3)cnc2OCC(F)(F)F)cc1 [Example 87, 5-(4-cyanophenyl)-6-(2,2,2-trifluoroethoxy)-N-((3-(trifluoromethyl)-1,2,4-oxadiazol-5-yl)methyl)nicotinamide] | –
18 | 11% | 48% | O=C(NCc1ccn(CC2CC2)n1)c1cnc(OCC(F)(F)F)c(-c2ccc(Cl)cc2)c1 [Example 88, 5-(4-chlorophenyl)-N-((1-(cyclopropylmethyl)-1H-pyrazol-3-yl)methyl)-6-(2,2,2-trifluoroethoxy)nicotinamide] | –
19 | 14% | 50% | Cc1noc(CNC(=O)c2cnc(OCC(F)(F)F)c(-c3ccc(Cl)cc3)c2)n1 [Example 90, 5-(4-chlorophenyl)-N-((3-methyl-1,2,4-oxadiazol-5-yl)methyl)-6-(2,2,2-trifluoroethoxy)nicotinamide] | –
20 | 21% | 39% | O=C(NCc1nc(C(F)(F)F)no1)c1cnc(OCC2CC2)c(-c2ccc(F)c(F)c2)c1 [Example 95, 6-(cyclopropylmethoxy)-5-(3,4-difluorophenyl)-N-((3-(trifluoromethyl)-1,2,4-oxadiazol-5-yl)methyl)nicotinamide] | –
21 | 8% | 45% | COCCOc1ncc(C(=O)NCc2nc(C(F)(F)F)no2)cc1-c1ccc(F)c(F)c1 [Example 96, 5-(3,4-difluorophenyl)-6-(2-methoxyethoxy)-N-((3-(trifluoromethyl)-1,2,4-oxadiazol-5-yl)methyl)nicotinamide] | –

Row | Structure (SMILES) | inhibition at 10 µM [1] | inhibition at 10 µM [2, 3] | inhibition at 10 µM [2]
22 | O=C(NCc1csc(C2CC2)n1)c1ccc(OCC2CC2)c(-c2ccc(Cl)cc2)n1 [Example 57, 6-(4-chloro-phenyl)-5-cyclopropylmethoxy-pyridine-2-carboxylic acid (2-cyclopropyl-thiazol-4-ylmethyl)-amide] | 36% | – | 31%
23 | O=C(NCc1cc(C(F)(F)F)no1)c1cnc(OCC(F)(F)F)c(-c2ccc(Cl)cc2)c1 [Example 59, 5-(4-chloro-phenyl)-6-(2,2,2-trifluoro-ethoxy)-N-(3-trifluoromethyl-isoxazol-5-ylmethyl)-nicotinamide] | -2% | – | 49%
24 | COc1cc(CNC(=O)c2cc(-c3ccc(C)c(Cl)c3)c(OCC(F)(F)F)cn2)on1 [Example 73, 4-(3-chloro-4-methylphenyl)-N-((3-methoxyisoxazol-5-yl)methyl)-5-(2,2,2-trifluoroethoxy)picolinamide] | 45% | – | 22%
25 | O=C(NCc1nc(C(F)(F)F)no1)c1cnc(OC2CCC2)c(-c2ccc(Cl)cc2)c1 [Example 92, 5-(4-chlorophenyl)-6-cyclobutoxy-N-((3-(trifluoromethyl)-1,2,4-oxadiazol-5-yl)methyl)nicotinamide] | 9% | 43% | –
26 | O=C(NCc1nc(C(F)(F)F)no1)c1cnc(OC2CCC2)c(-c2ccc(Cl)c(F)c2)c1 [Example 93, 5-(4-chloro-3-fluorophenyl)-6-cyclobutoxy-N-((3-(trifluoromethyl)-1,2,4-oxadiazol-5-yl)methyl)nicotinamide] | 7% | 18% | –
27 | COCCOc1ncc(C(=O)NCc2nc(C(F)(F)F)no2)cc1-c1ccc(Cl)c(F)c1 [Example 97, 5-(4-chloro-3-fluorophenyl)-6-(2-methoxyethoxy)-N-((3-(trifluoromethyl)-1,2,4-oxadiazol-5-yl)methyl)nicotinamide] | 25% | – | 48%
